# According to patent US10864178B2, “Pharmaceutical composition for treatment of cancer containing polyphenol compound as active ingredient” (priority 2016, dated 2020):
# Legend:
# AGS [1] = assay: Proliferation inhibition, sulforhodamine B assay; assay type: cell-based; settings: Homo sapiens, 48 hours treatment
# Description: (§1) In order to examine the proliferation inhibitory effects of gossypol against stomach cancer cell lines, 6 different stomach cancer cell lines (MKN28, MKN45, AGS, SNU668, Kato3 and HS746T) were prepared. The definition of cell lines known in the Korean Cell Line Bank or the American Type Culture Collection (ATCC) is described in Table 1 below.
# (§2) Each of the 6 different cell lines (1×10^3 to 1×10^4 cells/well) was cultured in a 96-well plate for 24 hours, and treated with 0, 10, 20, 40 or 60 μM of gossypol, and then further cultured for 48 hours.
# HS746T [2] = assay: Proliferation inhibition, sulforhodamine B assay; assay type: cell-based; settings: Homo sapiens, 48 hours treatment
# Description: as §1, §2
# Kato3 = assay: Proliferation inhibition, sulforhodamine B assay; assay type: cell-based; settings: Homo sapiens, 48 hours treatment
# Description: as §1, §2
# MKN28 [3] = assay: Proliferation inhibition, sulforhodamine B assay; assay type: cell-based; settings: Homo sapiens, MKN-28, 48 hours treatment
# Description: as §1, §2
# MKN45 [4] = assay: Proliferation inhibition, sulforhodamine B assay; assay type: cell-based; settings: Homo sapiens, MKN-45, 48 hours treatment
# Description: as §1, §2
# SNU668 = assay: Proliferation inhibition, sulforhodamine B assay; assay type: cell-based; settings: Homo sapiens, 48 hours treatment
# Description: as §1, §2
# [5] = tested on: stomach cancer cell lines (MKN28, MKN45 and SNU668); assay: ATP synthesis inhibition (Promega ATP assay kit); assay type: cell-based, Human; settings: 0, 10 or 20 μM of gossypol, 48 hours
# Description: ATP (adenosine triphosphate) is an energy source for organisms, and inhibition of intracellular ATP synthesis leads to a decrease in energy metabolism activity. The ATP synthesis inhibitory effects of gossypol on the stomach cancer cell lines (MKN28, MKN45 and SNU668) described in Example 1-1 were examined.
# Each of MKN28, MKN45 and SNU668 cell lines (1×10^3 to 1×10^4 cells/plate) was cultured in a 60 mm culture dish for 24 hours, treated with 0, 10 or 20 μM of gossypol, and then additionally cultured for 48 hours. Next, the cells were harvested, counted, diluted in 100 μl of RPMI buffer containing 10 vol % FBS, and then transferred to each well of 96-well plate. To each well containing the cells, 100 μl of assay buffer (rL/L reagent+reconstitution buffer) in the Promega ATP assay kit (G7572, Promega, […]., USA) was added, after which the emission of fluorescence was determined by measuring the absorbance at 560 nm.
# [6] = tested on: MKN28 (moderately differentiated cells); assay: Cell death, Annexin V+PI staining, FACS; assay type: cell-based, Human
# Description: (§3) Each of MKN28 (moderately differentiated cells) and MKN45 (poorly differentiated cells) cell lines (1×10^3 to 1×10^4 cells/plate), described in Example 1-1 above, was cultured in a 100 mm culture dish for 24 hours, and treated with 0, 5, 10 or 20 μM of gossypol, and then diluted in 400 μl of binding buffer (0.1 M Hepes, pH 7.4, 1.4 M NaCl, and 25 mM CaCl2)). The control cells treated with 0 μM of gossypol were divided into four groups which were not stained, stained with Annexin V, stained with PI (propidium iodide) and stained with Annexin V+PI, respectively, and the cells treated with 5, 10 or 20 μM of gossypol were stained with Annexin V+PI. Staining of the cells was performed in a dark room for 10 minutes. The stained cells were subjected to fluorescence activated cell sorting (FACS), thereby determining the ratio of dead cells to total cells. The results are shown in FIGS. 3 and 4 (BD Biosciences, #556547).
# [7] = tested on: MKN45 (poorly differentiated cells); assay: Cell death, Annexin V+PI staining, FACS; assay type: cell-based, Human
# Description: as §3
# AGS [8] = assay: Cell cycle analysis, PI staining, FACS; assay type: cell-based, Human; settings: 10 μM gossypol, 24 hours
# Description: (§4) Each of the 6 different stomach cancer cells lines (MKN28, MKN45, AGS, SNU668, Kato3 and HS746T) (1×10^3 to 1×10^4 cells/well), described in Example 1-1 above, was cultured in a 100 mm culture dish for 24 hours, and treated with 0 or 10 μM of gossypol, and then further cultured for 24 hours. The cells treated with gossypol were harvested, fixed with 70% ethanol, washed with cold 1×PBS, and then stained with PI+RNase solution (DPBS, pH 7.4) in a dark room for 30 minutes. The cells were subjected to fluorescence activated cell sorting (FACS), and the percentage of each cell cycle was analyzed based on the content of DNA.
# HS746T [9] = assay: Cell cycle analysis, PI staining, FACS; assay type: cell-based, Human; settings: 10 μM gossypol, 24 hours
# Description: as §4
# MKN28 [10] = assay: Cell cycle analysis, PI staining, FACS; assay type: cell-based, Human; settings: 10 μM gossypol, 24 hours
# Description: as §4
# MKN45 [11] = assay: Cell cycle analysis, PI staining, FACS; assay type: cell-based, Human; settings: 10 μM gossypol, 24 hours
# Description: as §4
# MKN-1 = assay: Proliferation inhibition of stomach cancer stem cells, sulforhodamine B assay; assay type: cell-based; settings: Homo sapiens; MKN-1 stomach cancer stem cells; 48 hours; read-out: IC50 concentration
# Description: (§5) First, in order to examine the growth inhibitory effect of gossypol against stomach cancer stem cells, two types of common stomach cancer cells (AGS and MKN-74) and two types of stomach cancer stem cells (MKN-1 and SNU-484) were prepared. Each type of cells was cultured in a 96-well plate at a density of 1×10^3 to 1×10^4 cells/well for 24 hours, and treated with 0, 10, 20, 40 or 60 μM of gossypol, and then further cultured for 48 hours. […] Based on the measured absorbance, the IC50 concentration of gossypol, at which the survival rate of each type of cells, is measured, and the results are shown in FIGS. 6 and 7.
# SNU-484 = assay: as above; assay type: cell-based; settings: SNU-484 stomach cancer stem cells; 48 hours; read-out: IC50 concentration
# Description: as §5
# AGS [12] = assay: Proliferation inhibition of common stomach cancer cells, sulforhodamine B assay; assay type: cell-based; settings: Homo sapiens, 48 hours, read-out: IC50 concentration
# Description: as §5
# MKN-74 = assay: as above; assay type: cell-based; settings: Homo sapiens; MKN-74 common stomach cancer cells; 48 hours; read-out: IC50 concentration
# Description: as §5
# [13] = tested on: stomach cancer stem cells (MKN-1 and SNU-484); assay: Proliferation inhibition, average over stomach cancer stem cells; assay type: cell-based; settings: average of MKN-1 and SNU-484; read-out: IC50 concentration, average
# Description: as §5
# [14] = tested on: common stomach cancer cells (MKN-74 and AGS); assay: Proliferation inhibition, average over common stomach cancer cells; assay type: cell-based; settings: Homo sapiens; average of MKN-74 and AGS; read-out: IC50 concentration, average
# Description: as §5
# PAGS (parental AGS) = assay: Proliferation inhibition, parental AGS cells; assay type: cell-based; settings: Homo sapiens, read-out: IC50 concentration
# Description: as §5
# (§6) On selected AGS cells (hereinafter referred to as SAGS (selected AGS), Cell Death Dis. 2015 Jul. 2; 6:e1805) selected from the common stomach cancer cell line AGS (hereinafter referred to as PAGS (parental AGS)) by analyzing phenotypes, including the cancer stem cell marker expression, tumor spheroid formation and standard anticancer agent resistance of cancer cells that survived under 4 weeks of continuous metabolic stress, and tumor formation in immunosuppressed mice, the growth inhibitory effects of gossypol were examined. Cell culture and survival rate measurement methods were performed in the same manner as Example 2-1.
# SAGS (selected AGS) = assay: Proliferation inhibition, selected AGS cells with the nature of cancer stem cells; assay type: cell-based; settings: Homo sapiens, read-out: IC50 concentration
# Description: as §5, §6
structure (smiles),measurement,setting,value
Cc1cc2c(C(C)C)c(O)c(O)c(C=O)c2c(O)c1-c1c(C)cc2c(C(C)C)c(O)c(O)c(C=O)c2c1O [gossypol],GI50,AGS [1],6.43 µM
same,GI50,HS746T [2],9.89 µM
same,GI50,Kato3,3.15 µM
same,GI50,MKN28 [3],5.32 µM
same,GI50,MKN45 [4],4.65 µM
same,GI50,SNU668,4.11 µM
same,ATP synthesis,[5],inhibited in proportion to the concentration of gossypol
same,cell death percentage,[6]; 5 μM gossypol,17.72%
same,cell death percentage,[6]; 10 μM gossypol,28.85%
same,cell death percentage,[6]; 20 μM gossypol,55.62%
same,cell death percentage,[7]; 5 μM gossypol,45.75%
same,cell death percentage,[7]; 10 μM gossypol,65.8%
same,cell death percentage,[7]; 20 μM gossypol,82.22%
same,sum of sub G1 and GO/G1 compared to before treatment,AGS [8],increased
same,sum of sub G1 and GO/G1 compared to before treatment,HS746T [9],increased
same,sum of sub G1 and GO/G1 compared to before treatment,MKN28 [10],decreased
same,sum of sub G1 and GO/G1 compared to before treatment,MKN45 [11],increased
same,IC50,MKN-1,2.6 µM
same,IC50,SNU-484,2.7 µM
same,IC50,AGS [12],4.5 µM
same,IC50,MKN-74,5.6 µM
same,IC50,[13],2.65 µM
same,IC50,[14],5.05 µM
same,IC50,PAGS (parental AGS),4.2 µM
same,IC50,SAGS (selected AGS),2.8 µM
